What was measured:
Assay type in all cases: in vivo
[1] = test system: ivy-leaved morning glory (Ipomoea hederacea); assay: Test G Pre-Emergence Protocol; settings: Ipomoea, pre-emergence, 312 h, evaluated after 13 days; for pest or weed control at 15.625 g/ha: 15.625 g ai/ha; for pest or weed control at 15.625 g/ha / pest or weed control at 250 g/ha: read-out: Morningglory, Ivy-leaved damage rating (100=total damage to plant; 0=no damage to plant); for pest or weed control at 62.5 g/ha: 62.5 g ai/ha, 100=total damage to plant, 0=no damage to plant, read-out: Morningglory, Ivy-leaved damage rating; for pest or weed control at 250 g/ha: 250 g ai/ha
Outline: (§1)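 Under a 24/16° C day/night regime with 14 h light and 65% humidity, sown pots were sprayed after one day with compound (15.625, 62.5 or 250 g/ha; 50:50 acetone/water, 0.5% Tween 20). Damage was assessed visually 13 days later, 0 to 100.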

[2] = test system: giant foxtail (Setaria faberi); assay: Test G Pre-Emergence Protocol; settings: Setaria faberi, pre-emergence, 312 h, evaluated after 13 days; for pest or weed control at 15.625 g/ha: 15.625 g ai/ha; for pest or weed control at 15.625 g/ha / pest or weed control at 250 g/ha: read-out: Foxtail, Giant damage rating (100=total damage to plant; 0=no damage to plant); for pest or weed control at 62.5 g/ha: 62.5 g ai/ha, 100=total damage to plant, 0=no damage to plant, read-out: Foxtail, Giant damage rating; for pest or weed control at 250 g/ha: 250 g ai/ha
Outline: as §1

corn (Zea mays) [3] = assay: Test G Pre-Emergence Protocol; settings: Zea mays, pre-emergence, 312 h, evaluated after 13 days; for plant injury at 15.625 g/ha: 15.625 g ai/ha; for plant injury at 15.625 g/ha / plant injury at 250 g/ha: read-out: Corn damage rating (100=total damage to plant; 0=no damage to plant); for plant injury at 62.5 g/ha: 62.5 g ai/ha, 100=total damage to plant, 0=no damage to plant, read-out: Corn damage rating; for plant injury at 250 g/ha: 250 g ai/ha
Outline: as §1

[4] = test system: velvetleaf (Abutilon theophrasti); assay: Test G Pre-Emergence Protocol; settings: Abutilon theophrasti, pre-emergence, 312 h, evaluated after 13 days; for pest or weed control at 15.625 g/ha: 15.625 g ai/ha; for pest or weed control at 15.625 g/ha / pest or weed control at 250 g/ha: read-out: Velvetleaf damage rating (100=total damage to plant; 0=no damage to plant); for pest or weed control at 62.5 g/ha: 62.5 g ai/ha, 100=total damage to plant, 0=no damage to plant, read-out: Velvetleaf damage rating; for pest or weed control at 250 g/ha: 250 g ai/ha
Outline: as §1

[5] = test system: barnyardgrass (Echinochloa crus-galli); assay: Test G Pre-Emergence Protocol; settings: Echinochloa crus-galli, pre-emergence, 312 h, evaluated after 13 days; for pest or weed control at 15.625 g/ha: 15.625 g ai/ha; for pest or weed control at 15.625 g/ha / pest or weed control at 250 g/ha: read-out: Barnyardgrass damage rating (100=total damage to plant; 0=no damage to plant); for pest or weed control at 62.5 g/ha: 62.5 g ai/ha, 100=total damage to plant, 0=no damage to plant, read-out: Barnyardgrass damage rating; for pest or weed control at 250 g/ha: 250 g ai/ha
Outline: as §1

[6] = test system: redroot pigweed (Amaranthus retroflexus); assay: Test G Pre-Emergence Protocol; settings: Amaranthus retroflexus, pre-emergence, 312 h, evaluated after 13 days; for pest or weed control at 15.625 g/ha: 15.625 g ai/ha; for pest or weed control at 15.625 g/ha / pest or weed control at 250 g/ha: read-out: Pigweed, Redroot damage rating (100=total damage to plant; 0=no damage to plant); for pest or weed control at 62.5 g/ha: 62.5 g ai/ha, 100=total damage to plant, 0=no damage to plant, read-out: Pigweed, Redroot damage rating; for pest or weed control at 250 g/ha: 250 g ai/ha
Outline: as §1

[7] = test system: ivy-leaved morning glory (Ipomoea hederacea); assay: Test G Post-Emergence Protocol; settings: Ipomoea, post-emergence, 312 h, read-out: Morningglory, Ivy-leaved damage rating; for pest or weed control at 15.625 g/ha: 15.625 g ai/ha, evaluated after 13 days (100=total damage to plant; 0=no damage to plant); for pest or weed control at 62.5 g/ha: 62.5 g ai/ha; for pest or weed control at 62.5 g/ha / pest or weed control at 250 g/ha: evaluated after 13 days, 100=total damage to plant, 0=no damage to plant; for pest or weed control at 250 g/ha: 250 g ai/ha
Outline: (§2)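 Eight days post-sowing, plants received a spray of test compound (acetone/water 50:50, 0.5% Tween 20) at 15.625, 62.5 or 250 g/ha. Glasshouse regime thereafter: 24/16 °C, 14 h light, 65% humidity. Assessment after 13 days on a 0–100 damage scale.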

[8] = test system: giant foxtail (Setaria faberi); assay: Test G Post-Emergence Protocol; settings: Setaria faberi, post-emergence, 312 h, read-out: Foxtail, Giant damage rating; for pest or weed control at 15.625 g/ha: 15.625 g ai/ha, evaluated after 13 days (100=total damage to plant; 0=no damage to plant); for pest or weed control at 62.5 g/ha: 62.5 g ai/ha; for pest or weed control at 62.5 g/ha / pest or weed control at 250 g/ha: evaluated after 13 days, 100=total damage to plant, 0=no damage to plant; for pest or weed control at 250 g/ha: 250 g ai/ha
Outline: as §2

corn (Zea mays) [9] = assay: Test G Post-Emergence Protocol; settings: Zea mays, post-emergence, 312 h, read-out: Corn damage rating; for plant injury at 15.625 g/ha: 15.625 g ai/ha, evaluated after 13 days (100=total damage to plant; 0=no damage to plant); for plant injury at 62.5 g/ha: 62.5 g ai/ha; for plant injury at 62.5 g/ha / plant injury at 250 g/ha: evaluated after 13 days, 100=total damage to plant, 0=no damage to plant; for plant injury at 250 g/ha: 250 g ai/ha
Outline: as §2

[10] = test system: velvetleaf (Abutilon theophrasti); assay: Test G Post-Emergence Protocol; settings: Abutilon theophrasti, post-emergence, 312 h, read-out: Velvetleaf damage rating; for pest or weed control at 15.625 g/ha: 15.625 g ai/ha, evaluated after 13 days (100=total damage to plant; 0=no damage to plant); for pest or weed control at 62.5 g/ha: 62.5 g ai/ha; for pest or weed control at 62.5 g/ha / pest or weed control at 250 g/ha: evaluated after 13 days, 100=total damage to plant, 0=no damage to plant; for pest or weed control at 250 g/ha: 250 g ai/ha
Outline: as §2

[11] = test system: barnyardgrass (Echinochloa crus-galli); assay: Test G Post-Emergence Protocol; settings: Echinochloa crus-galli, post-emergence, 312 h, read-out: Barnyardgrass damage rating; for pest or weed control at 15.625 g/ha: 15.625 g ai/ha, evaluated after 13 days (100=total damage to plant; 0=no damage to plant); for pest or weed control at 62.5 g/ha: 62.5 g ai/ha; for pest or weed control at 62.5 g/ha / pest or weed control at 250 g/ha: evaluated after 13 days, 100=total damage to plant, 0=no damage to plant; for pest or weed control at 250 g/ha: 250 g ai/ha
Outline: as §2

[12] = test system: redroot pigweed (Amaranthus retroflexus); assay: Test G Post-Emergence Protocol; settings: Amaranthus retroflexus, post-emergence, 312 h, read-out: Pigweed, Redroot damage rating; for pest or weed control at 15.625 g/ha: 15.625 g ai/ha, evaluated after 13 days (100=total damage to plant; 0=no damage to plant); for pest or weed control at 62.5 g/ha: 62.5 g ai/ha; for pest or weed control at 62.5 g/ha / pest or weed control at 250 g/ha: evaluated after 13 days, 100=total damage to plant, 0=no damage to plant; for pest or weed control at 250 g/ha: 250 g ai/ha
Outline: as §2

SMILES | pest or weed control at 15.625 g/ha [1] | pest or weed control at 62.5 g/ha [1] | pest or weed control at 250 g/ha [1] | pest or weed control at 15.625 g/ha [2] | pest or weed control at 62.5 g/ha [2] | pest or weed control at 250 g/ha [2] | plant injury at 15.625 g/ha (corn (Zea mays) [3]) | plant injury at 62.5 g/ha (corn (Zea mays) [3]) | plant injury at 250 g/ha (corn (Zea mays) [3]) | pest or weed control at 15.625 g/ha [4] | pest or weed control at 62.5 g/ha [4] | pest or weed control at 250 g/ha [4] | pest or weed control at 15.625 g/ha [5] | pest or weed control at 62.5 g/ha [5] | pest or weed control at 250 g/ha [5] | pest or weed control at 15.625 g/ha [6] | pest or weed control at 62.5 g/ha [6] | pest or weed control at 250 g/ha [6] | pest or weed control at 15.625 g/ha [7] | pest or weed control at 62.5 g/ha [7] | further results
COc1cc(OC(F)(F)F)cc(C2CN(C)C(=O)C2C(=O)Nc2cccc(F)c2F)c1 (stereo not drawn) [Compound 1697] | 0% | 0% | 0% | 70% | 80% | 80% | 0% | 40% | 50% | 0% | 0% | 20% | 40% | 70% | 80% | 0% | 0% | 20% | 30% | 60% | pest or weed control at 250 g/ha [7]: 60%; pest or weed control at 15.625 g/ha [8]: 80%; pest or weed control at 62.5 g/ha [8]: 80%; pest or weed control at 250 g/ha [8]: 80%; plant injury at 15.625 g/ha (corn (Zea mays) [9]): 10%; plant injury at 62.5 g/ha (corn (Zea mays) [9]): 80%; plant injury at 250 g/ha (corn (Zea mays) [9]): 80%; pest or weed control at 15.625 g/ha [10]: 0%; pest or weed control at 62.5 g/ha [10]: 30%; pest or weed control at 250 g/ha [10]: 30%; pest or weed control at 15.625 g/ha [11]: 60%; pest or weed control at 62.5 g/ha [11]: 70%; pest or weed control at 250 g/ha [11]: 90%; pest or weed control at 15.625 g/ha [12]: 20%; pest or weed control at 62.5 g/ha [12]: 60%; pest or weed control at 250 g/ha [12]: 70%
COc1ccc([C@@H]2CN(C)C(=O)[C@H]2C(=O)Nc2cccc(F)c2C)cc1Cl (racemic) [Compound 1793] | 0% | 0% | 10% | 30% | 90% | 90% | 0% | 20% | 40% | 0% | 0% | 30% | 20% | 70% | 90% | 0% | 0% | 0% | 0% | 10% | pest or weed control at 250 g/ha [7]: 70%; pest or weed control at 15.625 g/ha [8]: 70%; pest or weed control at 62.5 g/ha [8]: 80%; pest or weed control at 250 g/ha [8]: 80%; plant injury at 15.625 g/ha (corn (Zea mays) [9]): 10%; plant injury at 62.5 g/ha (corn (Zea mays) [9]): 30%; plant injury at 250 g/ha (corn (Zea mays) [9]): 50%; pest or weed control at 15.625 g/ha [10]: 0%; pest or weed control at 62.5 g/ha [10]: 10%; pest or weed control at 250 g/ha [10]: 30%; pest or weed control at 15.625 g/ha [11]: 30%; pest or weed control at 62.5 g/ha [11]: 70%; pest or weed control at 250 g/ha [11]: 80%; pest or weed control at 15.625 g/ha [12]: 0%; pest or weed control at 62.5 g/ha [12]: 0%; pest or weed control at 250 g/ha [12]: 0%
CN1C[C@@H](c2ccc(C(F)(F)F)cc2)[C@H](C(=O)Nc2ccc(F)nc2F)C1=O (racemic) [Compound 1650] | 0% | 0% | 0% | 40% | 90% | 90% | 0% | 0% | 80% | 0% | 0% | 50% | 10% | 70% | 90% | 0% | 70% | 80% | 20% | 10% | pest or weed control at 250 g/ha [7]: 20%; pest or weed control at 15.625 g/ha [8]: 70%; pest or weed control at 62.5 g/ha [8]: 80%; pest or weed control at 250 g/ha [8]: 80%; plant injury at 15.625 g/ha (corn (Zea mays) [9]): 10%; plant injury at 62.5 g/ha (corn (Zea mays) [9]): 50%; plant injury at 250 g/ha (corn (Zea mays) [9]): 70%; pest or weed control at 15.625 g/ha [10]: 0%; pest or weed control at 62.5 g/ha [10]: 20%; pest or weed control at 250 g/ha [10]: 40%; pest or weed control at 15.625 g/ha [11]: 40%; pest or weed control at 62.5 g/ha [11]: 80%; pest or weed control at 250 g/ha [11]: 80%; pest or weed control at 15.625 g/ha [12]: 10%; pest or weed control at 62.5 g/ha [12]: 70%; pest or weed control at 250 g/ha [12]: 80%

From patent publication US12077503B2, “Substituted cyclic amides and their use as herbicides” (FMC CORPORATION, priority 2015, dated 2024)
